In US5164296A, “Assay methods involving ouabain” (priority 1990, dated 1992):

Experiments:
[1] = test system: antibodies having binding specificity for ouabain; assay: Competition ELISA for binding to antibodies having binding specificity for ouabain; set-up: species or system rabbit
Description: The competition for binding to antibodies having binding specificity for ouabain was carried out by employing polyclonal antisera having titers >10,000 generated against ouabain in rabbits as described in Example 2 below. […] A competition ELISA was carried out as follows:
Microtiter plates were coated with 50 μl of a 1.0 ng/ml solution of Conjugate 4. Following washes with wash buffer comprising 0.9% (w/v) NaCl and 0.5% (v/v) Tween 20 (hereinafter "wash buffer"), residual sites were blocked with buffer comprising 136 mM NaCl, 1.46 mM KH2 PO4, 0.8 mM Na2 HPO4, 0.028 mM thimerosal, 0.5% (v/v) Tween 20, and 1.0% (w/v) BSA (pH 7.4). Known amounts of free ouabain or unknown samples were introduced followed by the addition of ouabain antisera at an overall dilution of 1:2×10^6. Incubations at 23° C. for 1 hr were terminated by repeated washing with wash buffer. Subsequently, a second incubation at […] for 1hr was performed with a 1:10^3 dilution of goat anti-rabbit IgG-peroxidase conjugate (Boehringer Mannheim, Indianapolis, Ind.). Following extensive washing with wash buffer, equal parts of 3, 3', 5, 5'-tetramethylbenzindine and hydrogen peroxide (Kirkegaard and Perry, Gaitheresburg, Md.) were added and incubated at 23° C. for 15 min. Color development was terminated by addition of 1.0 M H3 PO4 and read at 450 nm with a plate reader. […] Each data point is the mean ± S.E.M. All lines were fitted by nonlinear regression to a sigmoidal function.

[2] = Protein binding in plasma; format: in vitro ADME; settings: EDLF described in the present invention
[3] = test system: rings of aorta from guinea pigs; assay: Vasoactive properties in rings of aorta from guinea pigs; set-up: species or system guinea pig
Description: The aortic rings were incubated at 37° C. in phosphate buffered saline. The rings were submaximally contracted for 3 to 7 min, every 35 min, with 0.2 or 1.0 μM histamine. […] The apparent half-time for washout of the augmented tension response in the presence of plant ouabain was also much greater than 60 min.

CC1OC(OC2CC(O)C3(CO)C4C(O)CC5(C)C(C6=CC(=O)OC6)CCC5(O)C4CCC3(O)C2)C(O)C(O)C1O (stereo not shown) [human ouabain]
Hill coefficient ([1]; competition ELISA): -0.65 | Kd ([1]; competition ELISA, antisera 1:2×10^6, read-out: calculated apparent Kd value): 1.6 nM | cross-reaction with antibodies having binding specificity for ouabain ([1]; within experimental error): 100% | protein binding in plasma [2]: not highly protein bound in plasma | effect on baseline tension ([3]; 170 nM human ouabain, 200 nM plant ouabain): no effect | activity at 0.17 µM ([3]; Cavia porcellus, 0.5 h, read-out: histamine-evoked tension, % of control): 150 ± 14% | apparent half-time for washout of the augmented tension response ([3]; upon washout): greater than 60 min
